According to ChEMBL document CHEMBL1129819, “Polysubstituted 2H-pyran-2-ones: A new class of hepatoprotective agents” (1997):

What was measured:
Assay type in all cases: functional
[1] = species on record: Rattus norvegicus; test: Percent protection against thioacetamide-induced toxicity in rats using acid phosphatase(ACP); design: concentration or dose not given beside the values
[2] = system: Rattus norvegicus; test: Percent protection against thioacetamide-induced toxicity in rats using alkaline phosphatase (ALP) when peroral administration of compound 6 mg/kg for 7 days; conditions: route oral
[3] = system: Rattus norvegicus; test: Percent protection against thioacetamide-induced toxicity in rats using glutamate dehydrogenase (GIDH) when peroral administration of compound 6 mg/kg for 7 days; conditions: route oral
[4] = system: Rattus norvegicus; test: Percent protection against thioacetamide-induced toxicity in rats using glutamate oxaloacetate transaminase (GOT) when peroral administration of compound 6 mg/kg for 7 days; conditions: route oral
[5] = system: Rattus norvegicus; test: Percent protection against thioacetamide-induced toxicity in rats using glutamate pyruvate transaminase (GPT) when peroral administration of compound 6 mg/kg for 7 days; conditions: route oral
[6] = system: Rattus norvegicus; test: Percent protection against thioacetamide-induced toxicity in rats using acid phosphatase(ACP) at peroral dose of 6 mg/kg for 7 days of compound; conditions: route oral
[7] = system: Rattus norvegicus; test: Percent protection in paracetamol-induced model using glutamate pyruvate transaminase(GPT) when peroral administration of compound 6 mg/kg for 7 days; conditions: route oral
[8] = system: Rattus norvegicus; test: Percent protection in carbon tetrachloride-induced model using alkaline phosphatase(ALP) when peroral administration of compound 6 mg/kg for 7 days; conditions: route oral
[9] = system: Rattus norvegicus; test: Percent protection in carbon tetrachloride-induced model using glutamate dehydrogenase(GIDH) when peroral administration of compound 6 mg/kg for 7 days; conditions: route oral
[10] = system: Rattus norvegicus; test: Percent protection in carbon tetrachloride-induced model using glutamate oxaloacetate transaminase(GOT) when peroral administration of compound 6 mg/kg for 7 days; conditions: route oral
[11] = system: Rattus norvegicus; test: Percent protection in carbon tetrachloride-induced model using glutamate pyruvate transaminase(GPT) when peroral administration of compound 6 mg/kg for 7 days; conditions: route oral
[12] = system: Rattus norvegicus; test: Percent protection in galactosamine-induced model using acid phosphatase(ACP)when peroral administration of compound 6 mg/kg for 7 days; conditions: route oral
[13] = system: Rattus norvegicus; test: Percent protection in galactosamine-induced model using alkaline phosphatase(ALP) when peroral administration of compound 6 mg/kg for 7 days; conditions: route oral
[14] = system: Rattus norvegicus; test: Percent protection in galactosamine-induced model using glutamate dehydrogenase(GIDH) when peroral administration of compound 6 mg/kg for 7 days; conditions: route oral
[15] = system: Rattus norvegicus; test: Percent protection in galactosamine-induced model using glutamate oxaloacetate transaminase(GOT) when peroral administration of compound 6 mg/kg for 7 days; conditions: route oral
[16] = system: Rattus norvegicus; test: Percent protection in paracetamol-induced model using acid phosphatase(ACP) when peroral administration of compound 6 mg/kg for 7 days; conditions: route oral
[17] = system: Rattus norvegicus; test: Percent protection in paracetamol-induced model using alkaline phosphatase(ALP) at peroral dose of 6 mg/kg for 7 days; conditions: route oral
[18] = system: Rattus norvegicus; test: Percent protection in paracetamol-induced model using glutamate dehydrogenase(GIDH) when peroral administration of compound 6 mg/kg for 7 days; conditions: route oral
[19] = system: Rattus norvegicus; test: Percent protection in paracetamol-induced model using glutamate oxaloacetate transaminase(GOT) when peroral administration of compound 6 mg/kg for 7 days; conditions: route oral
[20] = system: Rattus norvegicus; test: Percent protection in alcohol-induced model using acid phosphatase(ACP) at peroral dose of 6 mg/kg for 7 days; conditions: route oral
[21] = system: Rattus norvegicus; test: Percent protection in carbon tetrachloride-induced model using acid phosphatase(ACP) when peroral administration of compound 6 mg/kg for 7 days; conditions: route oral
[22] = system: Rattus norvegicus; test: Percent protection in alcohol-induced model using acid phosphatase(ACP) when peroral administration of compound 12 mg/kg for 7 days; conditions: route oral
[23] = system: Rattus norvegicus; test: Percent protection in alcohol-induced model using alkaline phosphatase(ALP) when peroral administration of compound 12 mg/kg for 7 days; conditions: route oral
[24] = system: Rattus norvegicus; test: Percent protection in alcohol-induced model using alkaline phosphatase(ALP) when peroral administration of compound 6 mg/kg for 7 days; conditions: route oral
[25] = system: Rattus norvegicus; test: Percent protection in alcohol-induced model using glutamate dehydrogenase(GIDH) when peroral administration of compound 12 mg/kg for 7 days; conditions: route oral
[26] = system: Rattus norvegicus; test: Percent protection in alcohol-induced model using glutamate dehydrogenase(GIDH) when peroral administration of compound 6 mg/kg for 7 days; conditions: route oral
[27] = system: Rattus norvegicus; test: Percent protection in alcohol-induced model using glutamate oxaloacetate transaminase(GOT) when peroral administration of compound 12 mg/kg for 7 days; conditions: route oral
[28] = system: Rattus norvegicus; test: Percent protection in alcohol-induced model using glutamate oxaloacetate transaminase(GOT) when peroral administration of compound 6 mg/kg for 7 days; conditions: route oral
[29] = system: Rattus norvegicus; test: Percent protection in alcohol-induced model using glutamate pyruvate transaminase(GPT) at peroral dose of 12 mg/kg for 7 days; conditions: route oral
[30] = system: Rattus norvegicus; test: Percent protection in alcohol-induced model using glutamate pyruvate transaminase(GPT) when peroral administration of compound 6 mg/kg for 7 days; conditions: route oral
[31] = system: Rattus norvegicus; test: Percent protection in galactosamine-induced model using glutamate pyruvate transaminase(GPT) when peroral administration of compound 6 mg/kg for 7 days; conditions: route oral

CSc1cc(-c2ccc(Br)cc2)oc(=O)c1Br
Protection [1]: 72%
Protection [2]: 15%
Protection [3]: 28%
Protection [4]: 47%
Protection [5]: 18%

CSc1cc(-c2ccc(Br)cc2)oc(=O)c1Cl
Protection [6]: 30%
Protection [2]: 19%
Protection [3]: 26%
Protection [4]: 30%
Protection [5]: 40%

CSc1cc(-c2cccnc2)oc(=O)c1C#N
Protection [1]: 38%
Protection [2]: 0%
Protection [3]: 51%
Protection [4]: 12%
Protection [5]: 12%

CSc1cc(-c2ccc(Cl)cc2)oc(=O)c1C(N)=O
Protection [1]: 10%
Protection [2]: 17%
Protection [3]: 0%
Protection [4]: 16%
Protection [5]: 15%

CSc1cc(-c2ccc(Cl)cc2)oc(=S)c1Br
Protection [1]: 0%
Protection [2]: 36%
Protection [3]: 20%
Protection [4]: 25%
Protection [5]: 0%

CSc1cc(-c2ccncc2)oc(=O)c1Br
Protection [1]: 53%
Protection [2]: 12%
Protection [3]: 16%
Protection [4]: 48%
Protection [5]: 0%

CSc1cc(-c2ccc(F)cc2)oc(=O)c1
Protection [1]: 46%
Protection [2]: 30%
Protection [3]: 15%
Protection [4]: 59%
Protection [5]: 57%

CSc1cc(-c2ccc(Cl)cc2)oc(=O)c1Br
Protection [1]: 48%
Protection [2]: 100%
Protection [3]: 51%
Protection [4]: 70%
Protection [5]: 80%

CSc1cc(-c2ccc(Cl)cc2)oc(=O)c1
Protection [6]: 24%
Protection [2]: 42%
Protection [3]: 43%
Protection [4]: 46%
Protection [5]: 51%

CCOC(=O)c1c(SC)c(C#N)c(-c2ccc(Br)cc2)oc1=O
Protection [1]: 2%
Protection [2]: 0%
Protection [3]: 2%
Protection [4]: 0%
Protection [5]: 0%

CSc1cc(-c2ccc(Br)cc2)oc(=O)c1C#N
Protection [1]: 38%
Protection [2]: 56%
Protection [3]: 40%
Protection [4]: 20%
Protection [5]: 10%

CCOC(=O)c1c(SC)cc(-c2ccc(Cl)cc2)oc1=O
Protection [6]: 0%
Protection [2]: 11%
Protection [3]: 17%
Protection [4]: 23%
Protection [5]: 31%

CSc1cc(-c2ccncc2)oc(=O)c1C#N
Protection [6]: 0%
Protection [2]: 12%
Protection [3]: 0%
Protection [4]: 0%
Protection [5]: 0%

CSc1cc(-c2ccco2)oc(=O)c1C#N
Protection [1]: 0%
Protection [2]: 19%
Protection [3]: 15%
Protection [4]: 71%
Protection [5]: 72%

CSc1cc(-c2cccs2)oc(=O)c1C#N
Protection [1]: 10%
Protection [2]: 33%
Protection [3]: 100%
Protection [4]: 37%
Protection [5]: 74%

CSc1cc(-c2ccc(Cl)cc2)oc(=O)c1Cl
Protection [6]: 38%
Protection [2]: 40%
Protection [3]: 27%
Protection [4]: 36%
Protection [5]: 51%

CSc1cc(-c2ccc(F)cc2)oc(=O)c1C#N
Protection [1]: 46%
Protection [2]: 15%
Protection [3]: 0%
Protection [4]: 20%
Protection [5]: 31%

CSc1cc(-c2ccc(Cl)cc2Cl)oc(=O)c1C#N
Protection [1]: 61%
Protection [2]: 33%
Protection [3]: 65%
Protection [4]: 37%
Protection [5]: 45%

CSc1cc(-c2ccc(F)cc2)oc(=O)c1Br
Protection [6]: 49%
Protection [2]: 43%
Protection [3]: 0%
Protection [4]: 0%
Protection [5]: 0%

CSc1cc(-c2cccs2)oc(=O)c1Br
Protection [1]: 25%
Protection [2]: 37%
Protection [3]: 4%
Protection [4]: 50%
Protection [5]: 55%

CSc1cc(-c2ccc(Cl)cc2)oc(=O)c1C#N
Protection [7]: 81%
Protection [8]: 57%
Protection [9]: 58%
Protection [10]: 59%
Protection [11]: 67%
Protection [12]: 66%
Protection [13]: 68%
Protection [14]: 57%
Protection [15]: 86%
Protection [16]: 90%
Protection [17]: 73%
Protection [18]: 54%
Protection [19]: 73%
Protection [1]: 59%
Protection [2]: 65%
Protection [3]: 51%
Protection [4]: 68%
Protection [5]: 69%
Protection [20]: 53%
Protection [21]: 70%
Protection [22]: 74%
Protection [23]: 56%
Protection [24]: 24%
Protection [25]: 62%
Protection [26]: 40%
Protection [27]: 58%
Protection [28]: 34%
Protection [29]: 69%
Protection [30]: 48%
Protection [31]: 76%

CCOC(=O)c1c(SC)c(C#N)c(-c2ccc(Cl)cc2)oc1=O
Protection [1]: 30%
Protection [2]: 0%
Protection [3]: 16%
Protection [4]: 14%
Protection [5]: 19%

CSc1cc(-c2ccc(Cl)cc2)oc(=S)c1Cl
Protection [1]: 25%
Protection [2]: 10%
Protection [3]: 12%
Protection [4]: 29%
Protection [5]: 26%

COc1cc([C@H]2Oc3cc([C@H]4Oc5cc(O)cc(O)c5C(=O)[C@@H]4O)ccc3O[C@@H]2CO)ccc1O [SILYBIN A]
Protection [7]: 49%
Protection [8]: 51%
Protection [9]: 51%
Protection [10]: 48%
Protection [11]: 64%
Protection [13]: 33%
Protection [14]: 65%
Protection [15]: 47%
Protection [16]: 67%
Protection [17]: 50%
Protection [18]: 60%
Protection [19]: 46%
Protection [6]: 43.25%
Protection [1]: 61%
Protection [2]: 47%
Protection [3]: 38.81%
Protection [4]: 50.14%
Protection [5]: 47.25%
Protection [20]: 49%
Protection [21]: 57%
Protection [22]: 64%
Protection [23]: 77%
Protection [24]: 62%
Protection [25]: 59%
Protection [26]: 49%
Protection [27]: 62%
Protection [28]: 43%
Protection [29]: 78%
Protection [30]: 59%
Protection [31]: 45%
